Source: US10251394B2, “Molecules having pesticidal utility, and intermediates, compositions, and processes, related thereto” (Dow AgroSciences LLC, priority 2016, dated 2019)

Assays:
[1] = system: Beet Armyworm (Spodoptera exigua); assay: Bioassay on Beet Armyworm (BAW), 128-well diet tray assay; format: in vivo; settings: for pest or weed control at 50 µg/cm2: Beet Armyworm, Table ABC, read-out: BAW rating
Method in brief: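 Second-instar larvae (one to five per well) placed on artificial diet surface-treated with 50 μg/cm^2 test molecule in 90:10 acetone-water, dried, eight wells per molecule. Held at 25° C, 14:10 light-dark, five to seven days; percent mortality recorded per well and averaged across the eight wells.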

[2] = system: Cabbage Looper (Trichoplusia ni); assay: Bioassay on Cabbage Looper (CL), 128-well diet tray assay; format: in vivo; settings: for pest or weed control at 50 µg/cm2: Cabbage Looper, Table ABC, read-out: CL rating
Method in brief: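 Second-instar larvae, one to five per well, placed on artificial diet surface-treated with 50 μg/cm^2 compound in acetone-water, eight wells per compound. Held 5-7 days at 25° C, 14:10 light-dark; percent mortality per well averaged across wells.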

Question: Which pest or weed control at 50 µg/cm2 [1] does the source give for `O=C(NC1(C(=O)NCCC(F)(F)F)CC1)c1ccc(/C(F)=C/C(c2cc(Cl)c(Cl)c(Cl)c2)C(F)(F)F)cc1C(F)(F)F` (stereo not shown) [F90, (Z)-4-(1,4,4,4-Tetrafluoro-3-(3,4,5-trichlorophenyl)but-1-en-1-yl)-2-(trifluoromethyl)-N-(1-((3,3,3-trifluoropropyl)carbamoyl)cyclopropyl)benzamide] here?
Answer: 50 to 100%

Question: And the pest or weed control at 50 µg/cm2 [2]?
Answer: 50 to 100%

Question: What does the source list for `O=C(N[C@@H]1CON(CC(F)(F)F)C1=O)c1ccc(/C(F)=C/C(c2cc(Cl)c(Cl)c(C(F)F)c2)C(F)(F)F)cc1C(F)(F)F` (stereo partly drawn) [F199, 4-((Z)-3-(3,4-Dichloro-5-(difluoromethyl)phenyl)-1,4,4,4-tetrafluoro-but-1-enyl)-N—((R)-3-oxo-2-(2,2,2-trifluoroethyl)isoxazolidin-4-yl)-2-(trifluoromethyl)benzamide]?
Answer: pest or weed control at 50 µg/cm2 [1]: 50 to 100%; pest or weed control at 50 µg/cm2 [2]: 50 to 100%

Question: For `C[C@@H](NC(=O)c1ccc(/C(F)=C/C(c2ccc(OC(F)(F)F)c(Cl)c2)C(F)(F)F)cc1C(F)(F)F)C(=O)NCC(F)(F)F` (stereo partly drawn) [F182, 4-((Z)-3-(3-Chloro-4-(trifluoromethoxy)phenyl)-1,4,4,4-tetrafluorobut-1-en-1-yl)-N—((R)-1-oxo-1-((2,2,2-trifluoroethyl)amino)propan-2-yl)-2-(trifluoromethyl)benzamide], which pest or weed control at 50 µg/cm2 [1] is on record?
Answer: 50 to 100%

Question: And the pest or weed control at 50 µg/cm2 [2]?
Answer: 50 to 100%

Question: How did the pest or weed control at 50 µg/cm2 [1] turn out when `C=Cc1cc(C(/C=C(\F)c2ccc(C(=O)N[C@@H]3CON(CC(F)(F)F)C3=O)c(C(F)(F)F)c2)C(F)(F)F)cc(Cl)c1Cl` (stereo partly drawn) [F196, 4-((Z)-3-(3,4-Dichloro-5-vinylphenyl)-1,4,4,4-tetrafluorobut-1-en-1-yl)-N—((R)-3-oxo-2-(2,2,2-trifluoroethyl)isoxazolidin-4-yl)-2-(trifluoromethyl)benzamide] was run?
Answer: 50 to 100%

Question: What about the pest or weed control at 50 µg/cm2 [2] of the same molecule?
Answer: 50 to 100%

Question: What does the source list for `C[C@@H](NC(=O)c1ccc(/C(F)=C/C(c2cc(Cl)c(Cl)c(Cl)c2)C(C)(F)F)cc1Cl)C(=O)NCC(F)(F)F` (stereo partly drawn) [PF60, 2-Chloro-N—((R)-1-oxo-1-((2,2,2-trifluoroethyl)amino)propan-2-yl)-4-((Z)-1,4,4-trifluoro-3-(3,4,5-trichlorophenyl)pent-1-en-1-yl)benzamide]?
Answer: pest or weed control at 50 µg/cm2 [1]: 50 to 100%; pest or weed control at 50 µg/cm2 [2]: 50 to 100%

Question: For `C[C@@H](NC(=O)c1ccc(/C(F)=C/C(c2ccc(Br)c(F)c2)C(F)(F)F)cc1C(F)(F)F)C(=O)NCC(F)(F)F` (stereo partly drawn) [F170, 4-((Z)-3-(4-Bromo-3-fluorophenyl)-1,4,4,4-tetrafluorobut-1-en-1-yl)-N—((R)-1-oxo-1-((2,2,2-trifluoroethyl)amino)propan-2-yl)-2-(trifluoromethyl)benzamide], which pest or weed control at 50 µg/cm2 [1] is on record?
Answer: 50 to 100%

Question: What about the pest or weed control at 50 µg/cm2 [2] of the same molecule?
Answer: 50 to 100%

Question: How did the pest or weed control at 50 µg/cm2 [1] turn out when `CCC(F)(F)C(/C=C(\F)c1ccc(C(=O)N[C@H](C)C(=O)NCC(F)(F)F)c(C(F)(F)F)c1)c1cc(Cl)c(Cl)c(Cl)c1` (stereo partly drawn) [F174, N—((R)-1-Oxo-1-((2,2,2-trifluoroethyl)amino)propan-2-yl)-4-((Z)-1,4,4-trifluoro-3-(3,4,5-trichlorophenyl)hex-1-en-1-yl)-2-(trifluoromethyl)benzamide] was run?
Answer: 50 to 100%

Question: And the pest or weed control at 50 µg/cm2 [2]?
Answer: 50 to 100%

Question: Which results are given for `C[C@@H](NC(=O)c1ccc(/C(F)=C/C(c2ccc(Br)c(Cl)c2)C(F)(F)F)cc1C(F)(F)F)C(=O)N(C)CC(F)(F)F` (stereo partly drawn) [PF26, 4-((Z)-3-(4-Bromo-3-chlorophenyl)-1,4,4,4-tetrafluorobut-1-en-1-yl]-N—((R)-1-(methyl(2,2,2-trifluoroethyl)amino)-1-oxopropan-2-yl)-2-(trifluoromethyl)benzamide]?
Answer: pest or weed control at 50 µg/cm2 [1]: 50 to 100%; pest or weed control at 50 µg/cm2 [2]: 50 to 100%

Question: For `O=C(CNC(=O)c1ccc(/C(F)=C/C(c2cc(F)c(Cl)c(C(F)(F)F)c2)C(F)(F)F)cc1C(F)(F)F)NCC(F)(F)F` (stereo not shown) [F203, (Z)-4-(3-(4-Chloro-3-fluoro-5-(trifluoromethyl)phenyl)-1,4,4,4-tetrafluoro-but-1-en-1-yl)-N-(2-oxo-2-((2,2,2-trifluoroethyl)amino)ethyl)-2-(trifluoromethyl)benzamide], which pest or weed control at 50 µg/cm2 [1] is on record?
Answer: 50 to 100%

Question: And the pest or weed control at 50 µg/cm2 [2]?
Answer: 50 to 100%

Question: What does the source list for `CCNC(=O)[C@@H](C)NC(=O)c1ccc(/C(F)=C/C(c2cc(Cl)c(Cl)c(Cl)c2)C(F)(F)F)cc1C(F)(F)F` (stereo partly drawn) [F63, N—((R)-1-(Ethylamino)-1-oxopropan-2-yl)-4-((Z)-1,4,4,4-tetrafluoro-3-(3,4,5-trichlorophenyl)but-1-en-1-yl)-2-(trifluoromethyl)benzamide]?
Answer: pest or weed control at 50 µg/cm2 [1]: 50 to 100%; pest or weed control at 50 µg/cm2 [2]: 50 to 100%

Question: Which pest or weed control at 50 µg/cm2 [1] does the source give for `CN(CC(F)(F)F)C(=O)CNC(=O)c1ccc(/C(F)=C/C(c2cc(Cl)cc(C(F)(F)F)c2)C(F)(F)F)cc1C(F)(F)F` (stereo not shown) [PF41, (Z)-4-(3-(3-Chloro-5-(trifluoromethyl)phenyl)-1,4,4,4-tetrafluorobut-1-en-1-yl)-N-(2-(methyl(2,2,2-trifluoroethyl)amino)-2-oxoethyl)-2-(trifluoromethyl)benzamide] here?
Answer: 50 to 100%

Question: What about the pest or weed control at 50 µg/cm2 [2] of the same molecule?
Answer: 50 to 100%

Question: Which results are given for `CN(CC(F)(F)F)C(=O)CNC(=O)c1ccc(/C(F)=C/C(c2cc(Cl)c(Cl)c(Cl)c2)C(F)(F)F)cc1Br` (stereo not shown) [F48, (Z)-2-Bromo-N-(2-(methyl(2,2,2-trifluoroethyl)amino)-2-oxoethyl)-4-(1,4,4,4-tetrafluoro-3-(3,4,5-trichlorophenyl)but-1-en-1-yl)benzamide]?
Answer: pest or weed control at 50 µg/cm2 [1]: 50 to 100%; pest or weed control at 50 µg/cm2 [2]: 50 to 100%

Question: How did the pest or weed control at 50 µg/cm2 [1] turn out when `C=Cc1cc(C(/C=C(\F)c2ccc(C(=O)N[C@H](C)C(=O)NCC(F)(F)F)c(C(F)(F)F)c2)C(F)(F)F)cc(C=C)c1Cl` (stereo partly drawn) [F184, 4-((Z)-3-(4-Chloro-3,5-divinylphenyl)-1,4,4,4-tetrafluorobut-1-en-1-yl)-N—((R)-1-oxo-1-((2,2,2-trifluoroethyl)amino)propan-2-yl)-2-(trifluoromethyl)benzamide] was run?
Answer: 50 to 100%

Question: What about the pest or weed control at 50 µg/cm2 [2] of the same molecule?
Answer: 50 to 100%

Question: With `C[C@@H](NC(=O)c1ccc(/C(F)=C/C(c2cc(Cl)cc(OCC(F)(F)F)c2)C(F)(F)F)cc1C(F)(F)F)C(=O)NCC(F)(F)F` (stereo partly drawn) [F207, 4-((Z)-3-(3-chloro-5-(2,2,2-trifluoroethoxy)phenyl)-1,4,4,4-tetrafluorobut-1-en-1-yl)-N—((R)-1-oxo-1-((2,2,2-trifluoroethyl)amino)propan-2-yl)-2-(trifluoromethyl)benzamide] as the molecule, how does the pest or weed control at 50 µg/cm2 [1] read?
Answer: 50 to 100%

Question: And the pest or weed control at 50 µg/cm2 [2]?
Answer: 50 to 100%

Question: `CC(C)CCNC(=O)C1(NC(=O)c2ccc(/C(F)=C/C(c3cc(Cl)c(Cl)c(Cl)c3)C(F)(F)F)cc2C(F)(F)F)CC1` (stereo not shown) [F91, (Z)—N-(1-(Isopentylcarbamoyl)cyclopropyl)-4-(1,4,4,4-tetrafluoro-3-(3,4,5-trichlorophenyl)but-1-en-1-yl)-2-(trifluoromethyl)benzamide] was tested. Which pest or weed control at 50 µg/cm2 [1] did it give?
Answer: 50 to 100%

Question: And the pest or weed control at 50 µg/cm2 [2]?
Answer: 50 to 100%

Question: Which pest or weed control at 50 µg/cm2 [1] does the source give for `O=C(N[C@@H]1CON(CC(F)(F)F)C1=O)c1ccc(/C(F)=C/C(c2cc(Cl)c(Cl)c(Cl)c2)C(F)(F)F)cc1Br` (stereo partly drawn) [F198, 2-Bromo-N—((R)-3-oxo-2-(2,2,2-trifluoroethyl)isoxazolidin-4-yl)-4-((Z)-1,4,4,4-tetrafluoro-3-(3,4,5-trichlorophenyl)but-1-en-1-yl)benzamide] here?
Answer: 50 to 100%

Question: What about the pest or weed control at 50 µg/cm2 [2] of the same molecule?
Answer: 50 to 100%

Question: For `CN(CC(F)(F)F)C(=O)C1(NC(=O)c2ccc(/C(F)=C/C(c3cc(Cl)c(Cl)c(Cl)c3)C(F)(F)F)cc2Cl)CC1` (stereo not shown) [F97, (Z)-2-Chloro-N-(1-(methyl(2,2,2-trifluoroethyl)carbamoyl)cyclopropyl)-4-(1,4,4,4-tetrafluoro-3-(3,4,5-trichlorophenyl)but-1-en-1-yl)benzamide], which pest or weed control at 50 µg/cm2 [1] is on record?
Answer: 50 to 100%

Question: What about the pest or weed control at 50 µg/cm2 [2] of the same molecule?
Answer: 50 to 100%

Question: Which mortality at 0.05 µg/cm2 ([1]; 168 h, 0.05 μg/cm^2 on artificial diet, second instar larvae, five to seven days, read-out: BAW Percent control (or mortality)) does the source give for `O=C(CNC(=O)c1ccc(/C(F)=C/C(c2cc(Cl)c(Cl)c(Cl)c2)C(F)(F)F)cc1Cl)NCC(F)(F)F` (stereo not shown) [F22, (Z)-2-Chloro-N-(2-oxo-2-((2,2,2-trifluoroethyl)amino)ethyl)-4-(1,4,4,4-tetrafluoro-3-(3,4,5-trichlorophenyl)but-1-en-1-yl)benzamide] here?
Answer: 100%

Question: And the mortality at 0.5 µg/cm2 ([1]; 168 h, 0.5 μg/cm^2 on artificial diet, second instar larvae, five to seven days, read-out: BAW Percent control (or mortality))?
Answer: 100%

Question: And the mortality at 5 µg/cm2 ([1]; 168 h, 5 μg/cm^2 on artificial diet, second instar larvae, five to seven days, read-out: BAW Percent control (or mortality))?
Answer: 100%

Question: And the pest or weed control at 50 µg/cm2 [1]?
Answer: 50 to 100%

Question: And the mortality at 0.05 µg/cm2 ([2]; 168 h, 0.05 μg/cm^2 on artificial diet, second instar larvae, five to seven days, read-out: CL Percent control (or mortality))?
Answer: 100%

Question: And the mortality at 0.5 µg/cm2 ([2]; 168 h, 0.5 μg/cm^2 on artificial diet, second instar larvae, five to seven days, read-out: CL Percent control (or mortality))?
Answer: 100%

Question: And the mortality at 5 µg/cm2 ([2]; 168 h, 5 μg/cm^2 on artificial diet, second instar larvae, five to seven days, read-out: CL Percent control (or mortality))?
Answer: 100%

Question: And the pest or weed control at 50 µg/cm2 [2]?
Answer: 50 to 100%

Question: Which pest or weed control at 50 µg/cm2 [1] does the source give for `CC(F)(F)C(/C=C(\F)c1ccc(C(=O)NCC(=O)NCC(F)(F)F)c(C(F)(F)F)c1)c1cc(Cl)c(Cl)c(Cl)c1` (stereo not shown) [F62, (Z)—N-(2-Oxo-2-((2,2,2-trifluoroethyl)amino)ethyl)-4-(1,4,4-trifluoro-3-(3,4,5-trichlorophenyl)pent-1-en-1-yl)-2-(trifluoromethyl)benzamide] here?
Answer: 50 to 100%

Question: And the pest or weed control at 50 µg/cm2 [2]?
Answer: 50 to 100%

Question: Which results are given for `CC(F)(F)C(/C=C(\F)c1ccc(C(=O)NC2(C(=O)NCC(F)(F)F)CC2)c(C(F)(F)F)c1)c1ccc(Cl)c(Cl)c1` (stereo not shown) [F128, (Z)-4-(3-(3,4-Dichlorophenyl)-1,4,4-trifluoropent-1-en-1-yl)-N-(1-((2,2,2-trifluoroethyl)carbamoyl)cyclopropyl)-2-(trifluoromethyl)benzamide]?
Answer: pest or weed control at 50 µg/cm2 [1]: 50 to 100%; pest or weed control at 50 µg/cm2 [2]: 50 to 100%
